Test results: patent US20210347662A1, “METHODS AND APPARATUS FOR CONTROLLING OR […] TIDE” (priority 2020, published 2021)

How the values were obtained:
K. brevis [1] = assay: K. brevis cell count in test tubes of sea water after adding red tide inhibitors; assay type: cell-based, Karenia brevis; conditions: 10 ml Gulf of Mexico sea water, initial count at least 1 million K. brevis cells per liter; one drop of concentrated solution or 5 mg solid; counted after two minutes
Experimental: Experiments were performed to determine the K. brevis count with various red tide inhibitors.
A microscope with magnification up to 2500 times, was used along with a gridded Sedgewick-Rafter counting slide to record K. brevis cell counts. Testing was performed on Gulf of Mexico sea water containing K. brevis with an initial K. brevis cell count of at least 1 million K. brevis cells per liter. Test tubes contained 10 ml. each of this sea water, to which the following salts and other chemicals were added. For a concentrated solution of the additive, one drop is added and for solid additives, 5 mg is added. The test tubes contents containing the additives were gently mixed and then counts tabulated after two minutes.
Table 1 identifies the additives tested and the resultant cell count.

K. brevis [2] = assay: Microscope slide droplet test of additives on living K. brevis; assay type: cell-based, Karenia brevis; conditions: microscopy; drop of Gulf of Mexico marine water with at least hundreds of living K. brevis organisms to start; a droplet of additive solution or about 1 to 0 mg solid added

## O=S(=O)([O-])[O-].[Cu+2] [Concentrated copper sulfate solution, copper sulfate]
K. brevis [1]
  Cell Count: None
K. brevis [2]
  Experimental Results: No living K. brevis

## O=S(=O)([O-])[O-].[Mg+2] [Concentrated magnesium sulfate solution, magnesium sulfate]
K. brevis [1]
  Cell Count: None
K. brevis [2]
  Experimental Results: No living K. brevis

## [Cl-].[Na+] [Concentrated salt solution, sodium chloride]
K. brevis [1]
  Cell Count: None
K. brevis [2]
  Experimental Results: No living K. brevis

## CN(C)c1ccc2nc3ccc(=[N+](C)C)cc-3sc2c1 [Dilute methylene blue solution, methylene blue]
K. brevis [1]
  Cell Count: Very few
K. brevis [2]
  Experimental Results: No living K. brevis

## [O]=[Ca] [Solid calcium oxide, calcium oxide]
K. brevis [1]
  Cell Count: None

## [Ca+2].[OH-].[OH-] [calcium hydroxide]
K. brevis [2]
  Experimental Results: No living K. brevis

## CN.Cl [methylammonium chloride]
K. brevis [2]
  Experimental Results: No living K. brevis

## C[N+](C)(C)C.[Cl-] [tetamethylammonium chloride]
K. brevis [2]
  Experimental Results: No living K. brevis

## calcium sulfate [Concentrated calcium sulfate solution]
K. brevis [1]
  Cell Count: None
K. brevis [2]
  Experimental Results: No living K. brevis
